Assay results taken from patent publication US9028856B2, “Synergistic pesticide compositions” (priority 2008, dated 2015).

How the values were obtained:
Format in all cases: in vivo
[1] = test system: Musca domestica, susceptible strain WHO(N); assay: Efficacy of formulations on surfaces (glazed/unglazed tiles), house flies, continuous exposure; conditions: Table 114; 0.1% = 50 mg imidacloprid/m^2 on glazed tiles; EC formulation; continuous exposure
[2] = test system: Musca domestica, resistant strain Reichswald; assay: as above; conditions: Table 115; 0.1% = 50 mg imidacloprid/m^2 on glazed tiles; EC formulation; continuous exposure
[3] = test system: bedbug (Cimex lectularius), susceptible strain; assay: Contact efficacy against bedbugs on filter papers in glass dishes
Procedure: Adult Cimex lectularius, susceptible strain, were used. A solution of the active ingredient in acetone was prepared. In the same mode a complete […]. All these works were done under drawing off conditions. After evaporation of the acetone (30′) the dishes were closed by a glass lid and transferred into the test room.
One day later ten bedbugs, anaesthetized with CO2, were counted into each dish. At regular intervals, knock down was recorded (cumulatively).
The same methodology was used as was used in Example 105.

[4] = test system: German cockroach (Blattella germanica); assay: Contact efficacy against cockroaches on filter papers in glass dishes
Text: The objective of this study was to evaluate differences between deltamethrin and imidacloprid with and without adjuvant against cockroaches. The method for determining contact efficacy against cockroaches was the same as that in Example 107.

[5] = 0.00032% imidacloprid (1 mg/m^2) in acetone, filter papers, Table 105
[6] = 0.0016% Imidacloprid in acetone, first test
[7] = 0.0016% Imidacloprid in acetone, second test
[8] = 0.0016% imidacloprid (6 mg/m^2) in acetone, filter papers, Table 105
[9] = 0.008% Imidacloprid in acetone, first test
[10] = 0.008% Imidacloprid in acetone, second test

## O=[N+]([O-])NC1=NCCN1Cc1ccc(Cl)nc1 [imidacloprid]
[1]
  % KD and Mortality 15′: 25%
  % KD and Mortality 30′: 55%
  % KD and Mortality 1 h: 40%
  % KD and Mortality 2 h: 95%
  % KD and Mortality 3 h: 95%
  % KD and Mortality 4 h: 95%
  % KD and Mortality 6 h: 95%
  % KD and Mortality 24 h: 100%
[2]
  % KD and Mortality 15′: 5%
  % KD and Mortality 30′: 5%
  % KD and Mortality 1 h: 5%
  % KD and Mortality 2 h: 5%
  % KD and Mortality 3 h: 5%
  % KD and Mortality 4 h: 5%
  % KD and Mortality 6 h: 5%
  % KD and Mortality 24 h: 20%
[3]; [5]
  % knock down or moribund after 1 h: 0%
  % knock down or moribund after 2 h: 0%
  % knock down or moribund after 4 h: 0%
  % knock down or moribund after 6 h: 0%
  % knock down or moribund after 1 d: 0%
  % knock down or moribund after 2 d: 0%
  % knock down or moribund after 6 d: 0%
[3]; [6]
  % knock down or moribund after 1 h: 0%
  % knock down or moribund after 2 h: 0%
  % knock down or moribund after 4 h: 0%
  % knock down or moribund after 6 h: 10%
  % knock down or moribund after 1 d: 20%
  % knock down or moribund after 2 d: 20%
  % knock down or moribund after 6 d: 40%
[3]; [7]
  % knock down or moribund after 1 h: 0%
  % knock down or moribund after 2 h: 0%
  % knock down or moribund after 4 h: 0%
  % knock down or moribund after 6 h: 0%
  % knock down or moribund after 1 d: 0%
  % knock down or moribund after 2 d: 0%
  % knock down or moribund after 6 d: 0%
[3]; [8]
  % knock down or moribund after 1 h: 0%
  % knock down or moribund after 2 h: 0%
  % knock down or moribund after 4 h: 0%
  % knock down or moribund after 6 h: 0%
  % knock down or moribund after 1 d: 0%
  % knock down or moribund after 2 d: 0%
  % knock down or moribund after 6 d: 0%
[3]; [9]
  % knock down or moribund after 1 h: 0%
  % knock down or moribund after 2 h: 0%
  % knock down or moribund after 4 h: 0%
  % knock down or moribund after 6 h: 20%
  % knock down or moribund after 1 d: 30%
  % knock down or moribund after 2 d: 40%
  % knock down or moribund after 6 d: 80%
[3]; [10]
  % knock down or moribund after 1 h: 0%
  % knock down or moribund after 2 h: 0%
  % knock down or moribund after 4 h: 0%
  % knock down or moribund after 6 h: 0%
  % knock down or moribund after 1 d: 0%
  % knock down or moribund after 2 d: 0%
  % knock down or moribund after 6 d: 10%
[3]; Example 106, filter paper, concentrations in the label
  efficacy after 6 days: 0%
[4]; 0.04% Imidacloprid in acetone
  % Mortality after 15′: 0%
  % Mortality after 30′: 0%
  % Mortality after 1 h: 0%
  % Mortality after 2 h: 0%
  % Mortality after 4 h: 0%
  % Mortality after 6 h: 0%
  % Mortality after 1 d: 0%
[4]; 0.2% Imidacloprid in acetone
  % Mortality after 15′: 0%
  % Mortality after 30′: 0%
  % Mortality after 1 h: 0%
  % Mortality after 2 h: 0%
  % Mortality after 4 h: 0%
  % Mortality after 6 h: 0%
  % Mortality after 1 d: 0%
[4]; filter papers in glass dishes
  efficacy with adjuvant compared with insecticide alone (summary in words): no mortality was observed, with or without adjuvant
